Test results as given in patent US20230373934A1, “ANDROGEN RECEPTOR MODULATORS AND METHODS FOR THEIR USE” (ESSA Pharma, Inc., priority 2022, published 2023).

Target: T1, androgen receptor (AR) (Homo sapiens, UniProt P10275)
T1 sequence (P10275 1-920 T878A): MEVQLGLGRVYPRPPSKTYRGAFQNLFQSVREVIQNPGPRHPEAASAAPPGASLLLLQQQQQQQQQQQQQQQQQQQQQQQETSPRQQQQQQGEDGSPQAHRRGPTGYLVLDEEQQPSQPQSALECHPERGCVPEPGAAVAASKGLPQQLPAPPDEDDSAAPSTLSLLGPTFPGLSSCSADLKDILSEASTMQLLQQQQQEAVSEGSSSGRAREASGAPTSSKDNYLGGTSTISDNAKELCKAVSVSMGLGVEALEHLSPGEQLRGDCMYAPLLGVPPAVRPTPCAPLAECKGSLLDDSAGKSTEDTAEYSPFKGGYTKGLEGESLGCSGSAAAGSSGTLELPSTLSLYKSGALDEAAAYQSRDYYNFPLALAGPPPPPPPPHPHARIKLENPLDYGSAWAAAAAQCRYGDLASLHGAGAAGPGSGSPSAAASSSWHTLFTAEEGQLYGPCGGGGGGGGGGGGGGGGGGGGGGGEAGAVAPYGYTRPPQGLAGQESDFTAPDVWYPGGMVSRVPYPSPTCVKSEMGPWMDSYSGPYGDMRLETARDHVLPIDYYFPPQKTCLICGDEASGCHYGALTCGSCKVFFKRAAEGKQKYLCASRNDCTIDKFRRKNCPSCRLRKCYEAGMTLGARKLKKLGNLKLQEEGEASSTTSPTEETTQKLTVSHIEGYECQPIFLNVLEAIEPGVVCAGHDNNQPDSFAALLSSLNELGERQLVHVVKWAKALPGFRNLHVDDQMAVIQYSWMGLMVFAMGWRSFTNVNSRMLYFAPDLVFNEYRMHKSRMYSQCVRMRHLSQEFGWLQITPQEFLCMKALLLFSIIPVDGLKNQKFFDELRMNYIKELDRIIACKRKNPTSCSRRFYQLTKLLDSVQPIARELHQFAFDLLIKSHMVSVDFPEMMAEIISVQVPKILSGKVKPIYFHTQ
Assay: Androgen-induced PSA-luciferase assay, Luciferase Assay B (cells stably expressing ARR2PB or PSA-firefly luciferase reporter, 384-well)
Assay type: cell-based
Details: Luciferase Assay B (Compounds A186-A219 and A221-A245); stable luciferase reporter cells, 1 h pretreatment, R1881 24 h, serum-free; read-out: PSA-Luc IC50 Range
Protocol: Luciferase Assay B: Cells stably expressing probasin promoter (ARR2PB) or human prostate-specific antigen (PSA)-firefly luciferase reporter were plated in poly-D-lysine-coated 384-well plates. 48 h after plating, cells were pretreated with vehicle or compounds for 1 h before adding R1881 under serum-free and phenol red-free conditions and then further incubated for 24 h. R1881 was added only for LNCaP cells. Firefly luciferase activities were determined by EnVision plate reader (Perkinemer) using the Steady-Glo Luciferase Reporter Assay System (Promega). Values were normalized to protein content. GraphPad Prism graphing software was used to calculate IC50 values. Luciferase Assay B was run for Compounds A186-A219 and A221-A245 in Table 2.
Statistical analyses were performed using GraphPad Prism (Version 6.01 for Windows; La Jolla, CA, USA). Comparisons between treatment and control groups were compared using Two-Way ANOVA with post-hoc Dunnett's and Tukey's tests. Differences were considered statistically significant at P values less than 0.05.

IC50 | Compound
< 0.5 µM | CC(=O)N1CCN(c2nccc(COc3ccc(N(CC(F)(F)F)c4cc(Cl)c(OC5CC5)c(C#N)c4)cc3)n2)CC1 [Compound A245]
> 2 µM | N#Cc1cc(Oc2ccc(-c3ccc4nc(N5CCNCC5)cnc4c3)cc2)cc(Cl)c1OC1CC1 [Compound A240]
0.5 to 2 µM | CN(c1cnc2cc(-c3ccc(Oc4cc(Cl)c(OC5CC5)c(C#N)c4)cc3)ccc2n1)S(C)(=O)=O [Compound A195]
0.5 to 2 µM | CS(=O)(=O)Nc1ncc(-c2ccc(Oc3cc(Cl)c(OC4CC4)c(C#N)c3)cc2)cn1 [Compound A196]
0.5 to 2 µM | CS(=O)(=O)Nc1cnc2cc(-c3ccc(Oc4cnc(OC5CC5)c(Cl)c4)cc3)ccc2n1 [Compound A218]
< 0.5 µM | CS(=O)(=O)Nc1nccc(COc2ccc(N(CC(F)(F)F)c3cc(Cl)c(OCCCl)c(C#N)c3)cc2)n1 [Compound A238]
< 0.5 µM | CS(=O)(=O)Nc1nccc(COc2ccc(N(CC(F)(F)F)c3cc(Cl)c(N4CCOCC4)c(C#N)c3)cc2)n1 [Compound A223]
0.5 to 2 µM | CS(=O)(=O)Nc1cc2cnn(Cc3ccc(Oc4cc(Cl)c(OC5CC5)c(C#N)c4)cc3)c2cn1 [Compound A225]
< 0.5 µM | CS(=O)(=O)Nc1cnc2cc(-c3ccc(N(CC(F)(F)F)c4cc(Cl)c(N5CCOCC5)c(C#N)c4)cc3)ccc2n1 [Compound A224, N-(6-(4-((3-chloro-5-cyano-4-morpholinophenyl)(2,2,2-trifluoroethyl)amino)phenyl)quinoxalin-2-yl)methanesulfonamide]
> 2 µM | CS(=O)(=O)NC12CC(COc3ccc(N(CC(F)(F)F)c4cnc(NC5CC5)c(C#N)c4)cc3)(C1)C2 [Compound A235]
0.5 to 2 µM | CS(=O)(=O)NCc1ccc(-c2ccc(Oc3cc(Cl)c(OC4CC4)c(C#N)c3)cc2)cn1 [Compound A212]
> 2 µM | N#Cc1cc(Oc2ccc(-c3ccc4nc(N)cnc4c3)cc2)cc(Cl)c1OC1CC1 [Compound A194]
< 0.5 µM | CS(=O)(=O)Nc1cc2ccc(-c3ccc(Oc4cc(Cl)c(OC5CC5)c(C#N)c4)cc3)cc2nn1 [Compound A192]
0.5 to 2 µM | CS(=O)(=O)Nc1cnc2cc(-c3ccc(Oc4cc(Cl)c(OCCC(F)(F)F)c(C#N)c4)cc3)ccc2n1 [Compound A189]
> 2 µM | Cn1nc(NS(C)(=O)=O)c2ccc(-c3ccc(Oc4cc(Cl)c(OC5CC5)c(C#N)c4)cc3)cc21 [Compound A209]
0.5 to 2 µM | CS(=O)(=O)Nc1cncc(N2CC(c3ccc(Oc4cc(Cl)c(OC5CC5)c(C#N)c4)cc3)C2)n1 [Compound A232]
0.5 to 2 µM | CC(C)(c1ccc(OCc2ccnc(N3CCNCC3)n2)cc1)c1cc(Cl)c(OC2CC2)c(C#N)c1 [Compound A243]
0.5 to 2 µM | N#Cc1cc(Oc2ccc(-c3ccc4nc(N5CCS(=O)(=O)CC5)cnc4c3)cc2)cc(Cl)c1OC1CC1 [Compound A206]
0.5 to 2 µM | Cn1nc(NS(C)(=O)=O)c2cc(-c3ccc(Oc4cc(Cl)c(OC5CC5)c(C#N)c4)cc3)ccc21 [Compound A210]
0.5 to 2 µM | N#Cc1cc(Oc2ccc(-c3ccc4nc(NC5CCS(=O)(=O)CC5)cnc4c3)cc2)cc(Cl)c1OC1CC1 [Compound A215]
< 0.5 µM | CS(=O)(=O)Nc1nccc(N2CCN(c3ccc(Oc4cc(Cl)c(OC5CC5)c(C#N)c4)cc3)CC2)n1 [Compound A230]
0.5 to 2 µM | CCCOc1c(Cl)cc(Oc2ccc(-c3ccc4nc(NS(C)(=O)=O)cnc4c3)cc2)cc1C#N [Compound A188]

IC50 | Compound
0.5 to 2 µM | CS(=O)(=O)NCc1cnc(-c2ccc(Oc3cc(Cl)c(OC4CC4)c(C#N)c3)cc2)cn1 [Compound A213]
0.5 to 2 µM | CS(=O)(=O)NCc1cnc2cc(-c3ccc(Oc4cc(Cl)c(OC5CC5)c(C#N)c4)cc3)ccc2n1 [Compound A207, N-((6-(4-(3-chloro-5-cyano-4-cyclopropoxyphenoxy)phenyl)quinoxalin-2-yl)methyl)methanesulfonamide]
> 2 µM | N#Cc1cc(Oc2ccc(-c3ccc4nc(NC5CS(=O)(=O)C5)cnc4c3)cc2)cc(Cl)c1OC1CC1 [Compound A216]
0.5 to 2 µM | CS(=O)(=O)NCc1ccc(-c2ccc(Oc3cc(Cl)c(OC4CC4)c(C#N)c3)cc2)nn1 [Compound A214]
> 2 µM | CS(=O)(=O)Nc1cncc(N2CCN(c3ccc(Oc4cc(Cl)c(OC5CC5)c(C#N)c4)cc3)CC2)n1 [Compound A229]
0.5 to 2 µM | CS(=O)(=O)Nc1cnc2ccc(-c3ccc(Oc4cc(Cl)c(OC5CC5)c(C#N)c4)cc3)cc2n1 [Compound A193]
0.5 to 2 µM | CS(=O)(=O)NC12CC(COc3ccc(N(CC(F)(F)F)c4cnc(OC5CC5)c(C#N)c4)cc3)(C1)C2 [Compound A234]
0.5 to 2 µM | CC(=O)N1CCN(c2cnc3cc(-c4ccc(Oc5cc(Cl)c(OC6CC6)c(C#N)c5)cc4)ccc3n2)CC1 [Compound A242]
< 0.5 µM | CC(=O)N1CCN(c2nccc(COc3ccc(C(C)(C)c4cc(Cl)c(OC5CC5)c(C#N)c4)cc3)n2)CC1 [Compound A244]
> 2 µM | CNc1cnc2cc(-c3ccc(Oc4cc(Cl)c(OC5CC5)c(C#N)c4)cc3)ccc2n1 [Compound A200]
0.5 to 2 µM | CS(=O)(=O)Nc1ccc2nc(-c3ccc(Oc4cc(Cl)c(OC5CC5)c(C#N)c4)cc3)cnc2n1 [Compound A219]
0.5 to 2 µM | CS(=O)(=O)Nc1cc2cn(Cc3ccc(Oc4cc(Cl)c(OC5CC5)c(C#N)c4)cc3)nc2cn1 [Compound A227]
> 2 µM | N#Cc1cc(Oc2ccc(-c3ccc4nc(N5CCOCC5)cnc4c3)cc2)cc(Cl)c1OC1CC1 [Compound A204]
< 0.5 µM | CN(c1cnc2cc(-c3ccc(N(CC(F)(F)F)c4cnc(OC5CC5)c(C#N)c4)cc3)ccc2n1)S(C)(=O)=O [Compound A239]
0.5 to 2 µM | CS(=O)(=O)Nc1cnc2cc(-c3ccc(N(CC(F)(F)F)c4cnc(N5CCOCC5)c(C#N)c4)cc3)ccc2n1 [Compound A233]
0.5 to 2 µM | CS(=O)(=O)Nc1cnc2cc(-c3ccc(Nc4cc(Cl)c(OC5CC5)c(C#N)c4)cc3)ccc2n1 [Compound A226]
0.5 to 2 µM | CC(C)(c1ccc(OCc2ccnc(N3CCOCC3)n2)cc1)c1cc(Cl)c(OC2CC2)c(C#N)c1 [Compound A201, 3-chloro-2-cyclopropoxy-5-(2-(4-((2-morpholinopyrimidin-4-yl)methoxy)phenyl)propan-2-yl)benzonitrile]
> 2 µM | CS(=O)(=O)Nc1cnc2cc(-c3ccc(Oc4cnc(OC5CC5)c(C#N)c4)cc3)ccc2n1 [Compound A217]
> 2 µM | N#Cc1cc(Oc2ccc(-c3ccc4nc(N5CCNCC5)ncc4c3)cc2)cc(Cl)c1OC1CC1 [Compound A241]
0.5 to 2 µM | CC(C)(c1ccc(-c2cnc(NS(C)(=O)=O)nc2)cc1)c1cc(Cl)c(OC2CC2)c(C#N)c1 [Compound A197]
> 2 µM | CS(=O)(=O)Nc1cc(=O)n2cc(-c3ccc(Oc4cc(Cl)c(OC5CC5)c(C#N)c4)cc3)ccc2n1 [Compound A211]
